How the values were obtained:
Format in all cases: cell membranes
[1] = biological target: Delta-type opioid receptor (Homo sapiens, UniProt P41143); experiment: Displacement of [3H]DPDPE from human DOR extracted from HEK293 cell membrane assessed as inhibition constant
Mu-type opioid receptor = Mu-type opioid receptor (Homo sapiens, UniProt P35372); experiment: Displacement of [3H]-DAMGO from human MOR extracted from HEK293 cell membrane assessed as inhibition constant
[2] = biological target: Kappa-type opioid receptor (Homo sapiens, UniProt P41145); experiment: Displacement of [3H]U-69593 from human KOR extracted from HEK293 cell membrane assessed as inhibition constant
Kappa-type opioid receptor, sequence (P41145 whole entry): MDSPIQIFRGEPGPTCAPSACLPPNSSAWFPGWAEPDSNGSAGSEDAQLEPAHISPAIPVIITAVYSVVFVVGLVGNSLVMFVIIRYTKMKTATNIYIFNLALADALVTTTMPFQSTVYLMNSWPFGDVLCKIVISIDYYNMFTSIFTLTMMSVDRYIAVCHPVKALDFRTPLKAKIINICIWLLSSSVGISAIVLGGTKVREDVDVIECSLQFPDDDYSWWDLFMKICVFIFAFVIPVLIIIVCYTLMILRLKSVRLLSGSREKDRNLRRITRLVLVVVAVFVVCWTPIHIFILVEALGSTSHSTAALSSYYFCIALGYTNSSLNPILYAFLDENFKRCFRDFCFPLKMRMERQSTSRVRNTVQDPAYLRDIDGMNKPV

Delta-type opioid receptor, sequence (P41143 whole entry): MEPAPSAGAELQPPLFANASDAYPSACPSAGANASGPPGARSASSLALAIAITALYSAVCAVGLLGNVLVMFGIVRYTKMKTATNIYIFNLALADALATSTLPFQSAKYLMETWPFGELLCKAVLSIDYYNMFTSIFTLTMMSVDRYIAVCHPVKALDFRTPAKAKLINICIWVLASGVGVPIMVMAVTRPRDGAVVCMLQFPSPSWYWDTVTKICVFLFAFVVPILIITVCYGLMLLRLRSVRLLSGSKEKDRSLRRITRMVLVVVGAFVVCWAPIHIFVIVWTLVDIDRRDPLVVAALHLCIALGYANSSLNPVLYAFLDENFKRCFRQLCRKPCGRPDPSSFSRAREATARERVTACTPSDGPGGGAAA
Mu-type opioid receptor, sequence (P35372 whole entry): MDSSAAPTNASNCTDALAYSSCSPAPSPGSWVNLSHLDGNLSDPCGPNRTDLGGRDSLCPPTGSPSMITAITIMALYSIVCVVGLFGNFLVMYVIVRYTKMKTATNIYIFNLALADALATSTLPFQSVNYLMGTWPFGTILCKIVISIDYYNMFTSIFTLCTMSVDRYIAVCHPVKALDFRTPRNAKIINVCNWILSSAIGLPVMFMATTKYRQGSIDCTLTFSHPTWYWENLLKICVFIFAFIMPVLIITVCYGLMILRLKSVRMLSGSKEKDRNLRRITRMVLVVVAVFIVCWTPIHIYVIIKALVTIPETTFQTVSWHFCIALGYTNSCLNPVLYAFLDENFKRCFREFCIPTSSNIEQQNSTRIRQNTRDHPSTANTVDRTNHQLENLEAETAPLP

Compound `O=C1CC[C@]23C4[C@@H](CN(CC5CC5)C[N@@]42)[C@]32c3cccc(O)c3OC12` (some centres undefined) has a Ki [1] of 64 nM, a Ki (Mu-type opioid receptor) of 20 nM and a Ki [2] of 21 nM.
Compound `CC(=O)/C=C1/NC2Cc3ccc(O)c4c3[C@]35CCN1[C@]23CCC(=O)C5O4` (some centres undefined) has a Ki [1] of over 10000 nM, a Ki (Mu-type opioid receptor) of 380 nM and a Ki [2] of 310 nM.
With `C[C@@H](O)C[C@H]1NC2Cc3ccc(O)c4c3[C@]35CCN1[C@]23CCC(=O)C5O4` (some centres undefined) the Ki [1] was 620 nM, the Ki (Mu-type opioid receptor) was 69 nM and the Ki [2] was 390 nM.
With `CC(=O)C(C(C)=O)=C1N(CC2CC2)C2Cc3ccc(O)c4c3[C@]35CCN1[C@]23CCC(=O)C5O4` (some centres undefined) the Ki [1] was 1300 nM, the Ki (Mu-type opioid receptor) was 690 nM and the Ki [2] was 1400 nM.
Work on `N[C@@]12CCC(=O)C3Oc4c(O)ccc5c4[C@@]31CCN(CC1CC1)C2C5` (some centres undefined) yielded a Ki [1] of 19 nM, a Ki (Mu-type opioid receptor) of 0.82 nM and a Ki [2] of 1.8 nM.
Work on `CN1CN2CC[C@]34c5c6ccc(O)c5OC3C(=O)CC[C@]24C1C6` (some centres undefined) yielded a Ki [1] of 160 nM, a Ki (Mu-type opioid receptor) of 150 nM and a Ki [2] of 310 nM.
`O=C1CC[C@@]23C4Cc5ccc(O)c6c5[C@@]2(CCN3CN4CCc2ccccc2)C1O6` (some centres undefined) gave a Ki [1] of 25 nM, a Ki (Mu-type opioid receptor) of 22 nM and a Ki [2] of 5.2 nM.
`C[C@H](O)C[C@H]1NC2Cc3ccc(O)c4c3[C@]35CCN1[C@]23CCC(=O)C5O4` (some centres undefined) was tested, and the Ki [1] was 320 nM, the Ki (Mu-type opioid receptor) was 57 nM and the Ki [2] was 120 nM.

Reference: ChEMBL document CHEMBL5584218, “Design and synthesis of unique morphinan-type molecules: Their application to the search for the unexplored binding domain between opioid receptors and morphinan ligands” (Bioorg Med Chem Lett, 2024)
